# Measurements taken from article PMC4760439, “Glicentin‐related pancreatic polypeptide inhibits glucose‐stimulated insulin secretion from the isolated pancreas of adult male rats” (Physiological Reports, 2015).
# “Also recorded” adds a separate entry of the source.
# Key:
# perfused rat liver = assay: Isolated perfused rat liver: glucose output, lactate output, portal pressure; design: species or system Male Sprague‐Dawley rat; conditions: for Lactate output (effect of peptide vs control) / Portal pressure (effect of peptide vs control) / Glucose output, epinephrine‐stimulated (effect of peptide vs control): 2.3 or 230 pmol g^−1 min^−1 (n = 5 and n = 3), epinephrine 100 pmol g^−1 min^−1, 30–60 min; for Glucose output, epinephrine‐stimulated (effect of peptide vs control): 37°C
# Method: (§1) All studies were performed under approval of the University of Auckland Animal Ethics Committee and were consistent with the ARRIVE guidelines (Kilkenny et al. 2012). Male Sprague‐Dawley rats (220–300 g) were obtained from a breeding colony in the Integrated Physiology Unit, School of Biological Sciences at the University of Auckland. Animals were housed in standard environmental conditions under a 12‐hour light/dark cycle and a temperature of 20 ± 1°C. They were maintained on Teklad TB 2018 (Harlan, UK) rat chow and tap water ad libitum.
# Under general anesthesia (isoflurane 2–5%; 2 L min^−1 O2 via nasal cone), nonfasted rats underwent laparotomy between 8:00 and 9:00 AM on the experimental day. The liver was removed and quickly connected to a custom‐made, temperature‐controlled, organ perfusion system, whereby it was perfused (in nonrecirculating mode) in a manner similar to that reported previously (Englisch et al. 2000; Whiting et al. 2013). Livers were perfused at a rate of 2 mL g^−1 min^−1 with perfusion media containing final concentrations (in mmol L^−1): NaCl, 128; NaHCO3, 23.9; KCl, 6.0; CaCl2, 2.4; MgSO4, 1.18; D‐glucose, 5; 3‐(‐N‐morpholino)propane sulfonate, 1.29; with fatty‐acid‐free BSA, 0.5% (w/v) at pH 7.4 gassed with O2:CO2 95:5% (v/v) at 37°C. Each liver was stabilized for 40 min: thereafter, hormone‐containing solutions or vehicle (buffer only) was delivered via a side‐arm infusion. Hormones were also investigated with regard to their ability to attenuate epinephrine‐stimulated hepatic glucose output (Epinephrine, Sigma‐Aldrich, St. Louis, MO). Epinephrine was added 30 min after the addition of hormones was commenced.
# (§2) Measurement of organ perfusion parameters
# (§3) Glucose and lactate concentrations were measured in both organ preparations using a YSI2300 Stat glucose and lactate analyzer (Yellow Springs, Ohio). Portal pressure was measured in isolated‐perfused liver preparations in mmH2O via a T‐tube located 10 cm upstream from the preparation.
# (§4) Maximum pancreatic first‐phase insulin secretion in the presence of hormone infusion was contrasted with corresponding control values by unpaired Welch's t‐tests for preplanned comparisons, to allow for unequal variance between groups. Linear mixed‐effects models were fitted by restricted maximum likelihood (LME‐REML) to data obtained from each indicated phase of isolated perfused–organs studies, using S‐PLUS version 8.2 (TIBCO, Spotfire). Calculated P‐values <0.05 are presented in the article and reflect the likelihood ratio between two models, the effect in question (treatment, time, or treatment:time) against the model without the effect in question. Insulin secreted from isolated islets was expressed as a percentage of insulin content and compared using one‐way ANOVA (GraphPad Prism version 6.0: GraphPad Software Inc., San Diego, CA). Cyclic AMP data have been normalized to the response obtained to forskolin and fitted to obtain concentration–response curves using a three‐parameter logistic equation (GraphPad Prism version 6.0: GraphPad Software Inc., San Diego, CA): pEC50 values were obtained from the concentration–response curves and compared using one‐way ANOVA. All data are presented as mean ± SEM of three to four independent experiments.
# Figure 2 Effect of rGRPP and rGRPP‐LP on glucose output, lactate output, and portal pressure in the isolated perfused rat liver. Livers from Sprague‐Dawley rats were isolated and perfused with rGRPP (left panels: 2.3 or 230 pmol g^−1 min^−1, n = 5 and n = 3, respectively), rGRPP‐LP (right panels: 2.3 or 230 pmol g^−1 min^−1, n = 5 and n = 3), or vehicle (all panels: control, n = 5). Livers were perfused with hormones or vehicle from 0 to 60 min with 0–30 min as the basal period.
# [1] = tested on: isolated perfused rat pancreas; assay: Isolated perfused rat pancreas: insulin secretion (GSIS), lactate; design: species or system Male Sprague‐Dawley rat; conditions: for Insulin secretion at 5 mmol L^−1 glucose (vs control): first 20 min; for Insulin secretion at 5 mmol L^−1 glucose (vs control) / Glucose‐stimulated insulin secretion (GSIS) at 20 mmol L^−1 glucose (vs control): rGRPP and rGRPP‐LP 3 or 30 pmol min^−1, hGLP‐1 7–36 30 pmol min^−1, n = 5/group, insulin by ELISA, 37°C; for Glucose‐stimulated insulin secretion (GSIS) at 20 mmol L^−1 glucose (vs control): 20–40 min; for Glucose‐stimulated insulin secretion (GSIS) at 20 mmol L^−1 glucose (vs control) / First phase of GSIS (vs control) / Second phase of GSIS (vs control): 20 mmol L^−1 glucose; for First phase of GSIS (vs control): t = 22 min; for Second phase of GSIS (vs control): t = 26 min to t = 40
# Method: as §1
# Isolated pancreas perfusion
# General aspects of the preparation for the isolated pancreas perfusions were the same as those for the liver perfusion studies (above). Particular aspects of the preparation for the pancreas perfusion studies were as follows. After laparotomy, the pancreas and duodenum were removed en bloc and perfused (in nonrecirculating mode) consistent with our previous report (Buchanan et al. 2001). Each pancreatic preparation was quickly connected to the custom‐made, temperature‐controlled, organ perfusion system and perfused at 3 mL min^−1 with oxygenated perfusion buffer (containing at final concentrations in mmol L^−1): NaCl, 112; NaHCO3, 29.3; KCl, 4.4; CaCl2, 2.4; MgSO4, 1.2; D‐glucose, 5.0; with BSA, 0.5% (w/v), Dextran 4% (w/v) at pH 7.4 gassed with O2:CO2 95:5% (v/v) at 37°C. […] Each pancreas was stabilized for 30 min before hormones or vehicle (buffer only) was delivered via a side‐arm infusion.
# as §2, §3, §4
# Figure 3 Effects of proglucagon products on insulin secretion in the isolated‐perfused rat pancreas.
# [2] = molecular target: T1, human glucagon receptor (hGL‐R) (Homo sapiens, UniProt P47871); assay: cAMP stimulation in transfected Cos 7 cells, hGL‐R; format: cell-based; conditions: Cos 7, 37°C, 10 min, ALPHA‐screen
# T1 construct: expressed in transfected cells; host or cells: Cos 7 cells
# T1 sequence (P47871 26-477): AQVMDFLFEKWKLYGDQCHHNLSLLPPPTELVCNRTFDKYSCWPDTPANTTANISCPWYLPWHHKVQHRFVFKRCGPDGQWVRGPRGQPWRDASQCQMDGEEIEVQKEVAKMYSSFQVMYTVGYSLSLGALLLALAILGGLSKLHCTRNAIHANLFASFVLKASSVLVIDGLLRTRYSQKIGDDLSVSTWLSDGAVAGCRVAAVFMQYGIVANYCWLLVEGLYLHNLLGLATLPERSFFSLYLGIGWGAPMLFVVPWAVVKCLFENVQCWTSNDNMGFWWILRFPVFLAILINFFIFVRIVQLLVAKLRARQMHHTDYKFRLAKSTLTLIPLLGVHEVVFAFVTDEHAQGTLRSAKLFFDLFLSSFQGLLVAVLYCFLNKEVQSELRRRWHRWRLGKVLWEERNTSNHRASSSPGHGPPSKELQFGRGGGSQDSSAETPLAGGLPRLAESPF
# Method: (§5) Transfection of Cos 7 cells
# (§6) Cos 7 cells were maintained and subcultured as previously described (Bailey and Hay 2006) and plated at a density of 15,000 cells per well into 96‐well plates 1 day prior to transfection. […] Cyclic AMP assays were performed 48 h after transfection (Bailey and Hay 2006). The human GRPP was obtained from Bachem (Bubendorf, Switzerland).
# (§7) Cyclic AMP stimulation of transfected Cos 7 cells
# (§8) Transfected cells were serum‐deprived in DMEM containing 1 mmol L^−1 IBMX and 0.1% (w/v) bovine serum albumin (BSA) for 30 min. […] Plates were incubated at 37°C for 10 min. […] Media were then aspirated from the wells and reactions terminated by addition of ice‐cold absolute ethanol. Ethanol was then evaporated to dryness and cell extracts re‐suspended in 45 μL cAMP assay buffer: cAMP concentrations were determined using ALPHA‐screen assay kits (Perkin Elmer, Massachusetts) as previously described (Gingell et al. 2010).
# as §4, with “Cyclic AMP data have been normalized to the response obtained to forskolin and fitted to obtain concentration–response curves using a three‐parameter logistic equation (GraphPad Prism version 6.0: GraphPad Software Inc., San Diego, CA): pEC50 values were obtained from the concentration–response curves and compared using one‐way ANOVA. All data are presented as mean ± SEM of three to four independent experiments.” left out
# [3] = molecular target: T2, human GLP‐1 receptor (hGLP‐1R) (Homo sapiens, UniProt P43220); assay: cAMP stimulation in transfected Cos 7 cells, hGLP‐1R; format: cell-based; conditions: Cos 7, 37°C, 10 min, ALPHA‐screen
# T2 construct: expressed in transfected cells; host or cells: Cos 7 cells
# T2 sequence (P43220 24-463): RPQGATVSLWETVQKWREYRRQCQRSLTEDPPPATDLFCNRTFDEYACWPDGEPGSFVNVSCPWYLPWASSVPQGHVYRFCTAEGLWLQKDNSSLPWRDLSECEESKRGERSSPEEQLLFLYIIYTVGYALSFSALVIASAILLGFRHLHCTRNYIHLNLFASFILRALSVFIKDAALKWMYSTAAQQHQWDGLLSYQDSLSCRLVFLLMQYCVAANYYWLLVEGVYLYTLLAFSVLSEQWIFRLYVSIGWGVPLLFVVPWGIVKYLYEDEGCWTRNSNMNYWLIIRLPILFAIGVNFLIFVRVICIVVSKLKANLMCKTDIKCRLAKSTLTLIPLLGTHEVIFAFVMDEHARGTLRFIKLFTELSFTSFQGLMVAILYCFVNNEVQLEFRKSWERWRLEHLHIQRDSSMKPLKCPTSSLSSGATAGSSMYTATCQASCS
# Method: as §5, §6, §7, §8
# (§9) Maximum pancreatic first‐phase insulin secretion in the presence of hormone infusion was contrasted with corresponding control values by unpaired Welch's t‐tests for preplanned comparisons, to allow for unequal variance between groups. […] Calculated P‐values <0.05 are presented in the article and reflect the likelihood ratio between two models, the effect in question (treatment, time, or treatment:time) against the model without the effect in question. […]
# [4] = molecular target: T1, human glucagon receptor (hGL‐R); assay: Antagonism of glucagon‐stimulated cAMP production, hGL‐R; format: cell-based; conditions: peptide preincubated 5 min
# Method: as §5, §6, §7, §8, §9
# [5] = molecular target: T2, human GLP‐1 receptor (hGLP‐1R); assay: Antagonism of GLP‐1 7–36‐stimulated cAMP production, hGLP‐1R; format: cell-based; conditions: peptide preincubated 5 min
# Method: as §5, §6, §7, §8, §9
# canine pancreas = conditions: cited from earlier work
# Description: However, we know of only one study reporting the effects of GRPP on GSIS. […] The precise experimental conditions such as amount of glucose and experimental model used may have influences on the different outcomes; however, the reason for the opposing actions of GRPP between these ...
# [6] = 100 pmol g^−1 min^−1, 30–60 min, all groups
Compound,Lactate output (effect of peptide vs control) (perfused rat liver),Portal pressure (effect of peptide vs control) (perfused rat liver),"Glucose output, epinephrine‐stimulated (effect of peptide vs control) (perfused rat liver)",Insulin secretion at 5 mmol L^−1 glucose (vs control) [1],Glucose‐stimulated insulin secretion (GSIS) at 20 mmol L^−1 glucose (vs control) [1],First phase of GSIS (vs control) [1],Second phase of GSIS (vs control) [1],Stimulation of cAMP production at hGL‐R [2],Stimulation of cAMP production at hGLP‐1R [3],Antagonism of glucagon‐stimulated cAMP production [4],Antagonism of GLP‐1‐stimulated cAMP production [5],further results
"CNC[C@H](O)c1ccc(O)c(O)c1 [epinephrine, reference compound]",–,–,–,–,–,–,–,–,–,–,–,"Glucose output, effect of epinephrine (perfused rat liver; [6]): evoked an increase in glucose output in all groups; Lactate release, effect of epinephrine (perfused rat liver; [6]): expected elevation of lactate release; Portal pressure, effect of epinephrine (perfused rat liver; [6]): expected elevation of lactate release and portal pressure"
"HAPQDTEENARSFPASQTEPLEDPDQINED [rGRPP, rat glicentin‐related pancreatic polypeptide, 30 amino acid Gcg‐derived peptide, synthesized by Fmoc solid‐phase peptide synthesis]",Neither dose of rGRPP nor rGRPP‐LP modified these parameters compared with control values,Neither dose of rGRPP nor rGRPP‐LP modified these parameters compared with control values,not modified by rGRPP or GRPP‐LP; also recorded: Neither dose of rGRPP nor rGRPP‐LP modified these parameters compared with control values,No significant difference in insulin secretion,potent inhibition of glucose‐stimulated insulin secretion (GSIS) from the rat pancreas; also recorded: inhibited GSIS,inhibited the initial first phase of GSIS in the isolated rat pancreas,ongoing suppression of insulin secretion throughout the second phase,neither rGRPP nor rGRPP‐LP stimulated cAMP production at either receptor,neither rGRPP nor rGRPP‐LP stimulated cAMP production at either receptor,nor did they antagonize glucagon‐ or GLP‐1‐stimulated cAMP‐production at either receptor; also recorded: no shifts in the GLP‐1 7–36 or glucagon concentration–response curves,nor did they antagonize glucagon‐ or GLP‐1‐stimulated cAMP‐production at either receptor; also recorded: no shifts in the GLP‐1 7–36 or glucagon concentration–response curves,–
"HAPQDTEENARSFPASQTEPLEDPNQINE [rGRPP‐LP, rat GRPP‐like peptide]",Neither dose of rGRPP nor rGRPP‐LP modified these parameters compared with control values,Neither dose of rGRPP nor rGRPP‐LP modified these parameters compared with control values,Neither dose of rGRPP nor rGRPP‐LP modified these parameters compared with control values,No significant difference in insulin secretion,potent inhibition of glucose‐stimulated insulin secretion (GSIS) from the rat pancreas; also recorded: inhibited GSIS,inhibited the initial first phase of GSIS in the isolated rat pancreas,ongoing suppression of insulin secretion throughout the second phase,neither rGRPP nor rGRPP‐LP stimulated cAMP production at either receptor,neither rGRPP nor rGRPP‐LP stimulated cAMP production at either receptor,nor did they antagonize glucagon‐ or GLP‐1‐stimulated cAMP‐production at either receptor,nor did they antagonize glucagon‐ or GLP‐1‐stimulated cAMP‐production at either receptor,"Glucose output, epinephrine‐stimulated (effect of peptide vs control) (perfused rat liver; listed as GRPP‐LP): not modified by rGRPP or GRPP‐LP"
"human glicentin 1–16: human glicentin 1–16, literature peptide (RSLQDTEEKSRSFSAS; Glicentin; UniProt P01275 21-36, looked up, fragment)",–,–,–,–,–,–,–,–,–,–,–,"Plasma insulin and glucagon, canine pancreas (canine pancreas; local circulation preparation of the canine pancreas, ref Ohneda and Ohneda 1988): slight increases in plasma insulin and decreases in plasma glucagon"
"human glicentin 12–69: encompasses both GRPP and glucagon sequences (SFSASQADPLSDPDQMNEDKRHSQGTFTSDYSKYLDSRRAQDFVQWLMNTKRNRNNIA; Glicentin; UniProt P01275 32-89, looked up, fragment)",–,–,–,–,–,–,–,–,–,–,–,"GSIS and glucagon secretion, perfused canine pancreas (canine pancreas; ref Yanaihara et al. 1985): enhanced GSIS and inhibited glucagon secretion in the perfused canine pancreas"
"porcine GRPP: porcine GRPP, literature peptide (RSLQNTEEKSRSFPAPQTDPLDDPDQMTED; Glicentin-related polypeptide; UniProt P01274 21-50, looked up)",–,–,–,–,–,–,–,–,–,–,–,"Insulin and glucagon secretion, canine pancreas (canine pancreas; ref Ohneda and Ohneda 1988): insulin was possibly increased and glucagon decreased"
